BigSolDB 2.1

O=C(O)/C=C\C=C/C(=O)O
solubility (mole fraction)
Conditions | in acetic acid | in ethanol | in isopropanol | in water
298.15 K | 0.0029 | 0.0117 | 0.0101 | 0.0002
303.15 K | 0.0034 | 0.0139 | 0.0107 | 0.0004
308.15 K | 0.0039 | 0.016 | 0.0124 | 0.0006
313.15 K | 0.0044 | 0.0184 | 0.0139 | 0.0008
318.15 K | 0.0052 | 0.0236 | 0.0156 | 0.0014
323.15 K | 0.0057 | 0.0293 | 0.017 | 0.0021
328.15 K | 0.0065 | 0.037 | 0.0204 | 0.0031
333.15 K | 0.0076 | 0.0478 | 0.0244 | 0.005
338.15 K | 0.0086 | 0.0595 | 0.0274 | 0.0068
343.15 K | 0.01 | 0.0715 | 0.0297 | 0.0106
348.15 K | 0.0125 | 0.0847 | 0.0342 | 0.0153
